Earlier results, collected in patent US20240310266A1, “BIOMARKERS FOR CANCER AND METHODS OF USE THEREOF” (Novartis AG, priority 2021, published 2024).

Conditions: rats

CC(C)(C)c1nc(-c2cccc(NS(=O)(=O)c3c(F)cccc3F)c2F)c(-c2ccnc(N)n2)s1 [dabrafenib, N-{3-[5-(2-aminopyrimidin-4-yl)-2-tert-butyl-1,3-thiazol-4-yl]-2-fluorophenyl}-2,6-difluorobenzenesulfonamide]
proliferative skin lesions: proliferative skin lesions observed
